Reference: ChEMBL document CHEMBL6115026, “Synthesis and Biological Evaluation of Peripheral 5HT2B Antagonists for Liver Fibrosis” (J Med Chem, 2025)
Values belong to the compound of their own block, whether it stands above or below them. The source made the active and inactive calls. The calls are words filed in the database; no cut-off is given here.

Columns and labels:
[1] = biological target: T1, 5-hydroxytryptamine receptor 2B (Homo sapiens, UniProt P41595); test: Binding affinity to 5-HT2B (unknown origin)
[2] = biological target: T1, 5-hydroxytryptamine receptor 2B; test: Antagonist activity at 5HT2B (unknown origin) expressed in FRT cells co-expressing ANO1 and YFP assessed as inhibition of 5HT-induced increase in iodide influx at 1 uM preincubated with compound for 10 mins followed by 5-HT addition and measured after 8 sec by YFP fluorescence quenching analysis relative to control; format: cell-based; conditions: time 608.0 sec
[3] = Cytotoxicity against CHO-K1 cells assessed as reduction in cell viability incubated for 24 hrs by EZ-CYTOX cell viability assay; format: toxicity, cell-based, Cricetulus griseus; conditions: Chinese hamster
[4] = biological target: 5-hydroxytryptamine receptor 2A (Homo sapiens) (UniProt P28223); test: Inhibition of 5-HT2A (unknown origin) at 1 uM relative to control
[5] = Metabolic stability in human liver microsomes assessed as parent compound remaining measured after 30 mins in presence of NADPH by LC-MS/MS analysis; format: ADME, Microsome; conditions: read-out: Stability
[6] = tested on: Mus musculus; test: Antifibrotic activity in CCl4-induced male C57BL/6J mouse model of liver fibrosis assessed as downregulation of Col3a1 gene expression at 10 to 30 mg/kg, ip co-administered daily with CCl4 for 4 weeks by RT-PCR analysis; format: functional, organism-based; conditions: dose 10-30 mg/kg
[7] = biological target: T1, 5-hydroxytryptamine receptor 2B; test: Antagonist activity at 5HT2B (unknown origin) expressed in FRT cells co-expressing ANO1 and YFP assessed as inhibition of 5HT-induced increase in iodide influx preincubated with compound for 10 mins followed by 5-HT addition and measured after 8 sec by YFP fluorescence quenching analysis; format: cell-based
[8] = biological target: CYP3A4 (Homo sapiens, UniProt P08684); test: Inhibition of CYP3A4 (unknown origin) at 1 uM preincubated for 10 mins followed by NADPH addition and measured after 20 mins by luminescence based microplate reader analysis relative to control; format: ADME; conditions: time 30 min
[9] = tested on: Mus musculus; test: Antifibrotic activity in CCl4-induced male C57BL/6J mouse model of liver fibrosis assessed as reduction in fibrotic deposition in liver at 10 to 30 mg/kg, ip co-administered daily with CCl4 for 4 weeks by sirius red staining based analysis; format: functional, organism-based; conditions: dose 10-30 mg/kg
[10] = Cytotoxicity against mouse NIH3T3 cells assessed as reduction in cell viability incubated for 24 hrs by EZ-CYTOX cell viability assay; format: toxicity, cell-based
[11] = Drug concentration in male mouse brain at 5 mg/kg, ip measured after 0.5 hrs by LC-MS/MS analysis; format: ADME, organism-based; conditions: read-out: Ct
[12] = tested on: Mus musculus; test: Antifibrotic activity in CCl4-induced male C57BL/6J mouse model of liver fibrosis assessed as downregulation of alpha-SMA gene expression at 10 to 30 mg/kg, ip co-administered daily with CCl4 for 4 weeks by RT-PCR analysis; format: functional, organism-based; conditions: dose 10-30 mg/kg
[13] = tested on: Mus musculus; test: Antifibrotic activity in CCl4-induced male C57BL/6J mouse model of liver fibrosis assessed as reduction in plasma ALT level at 10 to 30 mg/kg, ip co-administered daily with CCl4 for 4 weeks by enzymatic colorimetric analysis; format: functional, organism-based; conditions: dose 10-30 mg/kg
[14] = AUC (0 to t) in male ICR mouse at 2 mg/kg, iv measured after 24 hrs by LC-MS/MS analysis; format: ADME, organism-based; conditions: in vivo
[15] = Toxicity in CCl4-induced male C57BL/6J mouse model of liver fibrosis assessed as effect on liver gross morphology at 10 to 30 mg/kg, ip co-administered daily with CCl4 for 4 weeks; format: organism-based; conditions: in vivo, 672 h, dose 10-30 mg/kg
[16] = tested on: Mus musculus; test: Antifibrotic activity in CCl4-induced male C57BL/6J mouse model of liver fibrosis assessed as reduction in hydroxyproline level in liver at 10 to 30 mg/kg, ip co-administered daily with CCl4 for 4 weeks; format: functional, organism-based; conditions: dose 10-30 mg/kg
[17] = Clearance in male ICR mouse at 2 mg/kg, iv measured after 24 hrs by LC-MS/MS analysis; format: ADME, organism-based; conditions: in vivo
[18] = biological target: CYP2C9 (Homo sapiens, UniProt P11712); test: Inhibition of CYP2C9 (unknown origin) at 1 uM preincubated for 10 mins followed by NADPH addition and measured after 20 mins by luminescence based microplate reader analysis relative to control; format: ADME; conditions: time 30 min
[19] = tested on: Mus musculus; test: Antifibrotic activity in CCl4-induced male C57BL/6J mouse model of liver fibrosis assessed as downregulation of Col1a1 gene expression at 10 to 30 mg/kg, ip co-administered daily with CCl4 for 4 weeks by RT-PCR analysis; format: functional, organism-based; conditions: dose 10-30 mg/kg
[20] = Metabolic stability in mouse liver microsomes assessed as parent compound remaining measured after 30 mins in presence of NADPH by LC-MS/MS analysis; format: ADME, Microsome; conditions: read-out: Stability
[21] = Volume of distribution at steady state in male ICR mouse at 2 mg/kg, iv measured after 24 hrs by LC-MS/MS analysis; format: ADME, organism-based; conditions: in vivo, read-out: Vdss
[22] = tested on: Mus musculus; test: Antifibrotic activity in CCl4-induced male C57BL/6J mouse model of liver fibrosis assessed as reduction in plasma AST level at 10 to 30 mg/kg, ip co-administered daily with CCl4 for 4 weeks by enzymatic colorimetric analysis; format: functional, organism-based; conditions: dose 10-30 mg/kg
[23] = tested on: Mus musculus; test: Antifibrotic activity in CCl4-induced male C57BL/6J mouse model of liver fibrosis assessed as reduction in fibrotic deposition in liver at 10 to 30 mg/kg, ip co-administered daily with CCl4 for 4 weeks by H and E staining based analysis; format: functional, organism-based; conditions: dose 10-30 mg/kg
[24] = biological target: CYP2D6 (Homo sapiens, UniProt P10635); test: Inhibition of CYP2D6 (unknown origin) at 1 uM preincubated for 10 mins followed by NADPH addition and measured after 20 mins by luminescence based microplate reader analysis relative to control; format: ADME; conditions: time 30 min
[25] = Cytotoxicity against African green monkey Vero cells assessed as reduction in cell viability incubated for 24 hrs by EZ-CYTOX cell viability assay; format: toxicity, cell-based, Chlorocebus sabaeus
[26] = Drug concentration in male mouse plasma at 5 mg/kg, ip measured after 0.5 hrs by LC-MS/MS analysis; format: ADME, organism-based
[27] = tested on: Mus musculus; test: Antifibrotic activity in CCl4-induced male C57BL/6J mouse model of liver fibrosis assessed as reduction in fibrosis be measuring fibrotic stage at 10 to 30 mg/kg, ip co-administered daily with CCl4 for 4 weeks; format: functional, organism-based; conditions: dose 10-30 mg/kg
[28] = Cytotoxicity against mouse L929 cells assessed as reduction in cell viability incubated for 24 hrs by EZ-CYTOX cell viability assay; format: toxicity, cell-based
[29] = biological target: T2, CYP1A2 (Homo sapiens, UniProt P05177); test: Inhibition of CYP1A2 (unknown origin) at 1 uM preincubated for 10 mins followed by NADPH addition and measured after 20 mins by luminescence based microplate reader analysis relative to control; format: ADME; conditions: time 30 min
T2 sequence (P05177 whole entry): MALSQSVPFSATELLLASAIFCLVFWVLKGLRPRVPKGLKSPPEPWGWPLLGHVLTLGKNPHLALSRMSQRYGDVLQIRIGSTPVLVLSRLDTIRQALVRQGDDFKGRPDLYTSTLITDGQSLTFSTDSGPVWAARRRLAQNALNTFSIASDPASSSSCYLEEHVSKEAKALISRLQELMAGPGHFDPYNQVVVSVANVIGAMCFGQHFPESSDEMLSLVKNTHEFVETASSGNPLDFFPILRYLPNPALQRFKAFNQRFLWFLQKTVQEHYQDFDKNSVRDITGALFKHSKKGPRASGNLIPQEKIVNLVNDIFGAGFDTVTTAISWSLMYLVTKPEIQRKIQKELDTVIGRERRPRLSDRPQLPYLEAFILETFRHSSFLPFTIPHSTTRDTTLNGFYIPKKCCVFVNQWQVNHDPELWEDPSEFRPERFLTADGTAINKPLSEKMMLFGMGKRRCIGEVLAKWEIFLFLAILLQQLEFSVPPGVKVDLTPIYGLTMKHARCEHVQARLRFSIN

[30] = Cytotoxicity against HFL1 cells assessed as reduction in cell viability incubated for 24 hrs by EZ-CYTOX cell viability assay; format: toxicity, cell-based; conditions: human
[31] = Half-life in male ICR mouse at 2 mg/kg, iv measured after 24 hrs by LC-MS/MS analysis; format: ADME, organism-based; conditions: in vivo
[32] = biological target: CYP2C19 (Homo sapiens, UniProt P33261); test: Inhibition of CYP2C19 (unknown origin) at 1 uM preincubated for 10 mins followed by NADPH addition and measured after 20 mins by luminescence based microplate reader analysis relative to control; format: ADME; conditions: time 30 min
[33] = tested on: Mus musculus; test: Antifibrotic activity in CCl4-induced male C57BL/6J mouse model of liver fibrosis assessed as reduction in sirius red positive area in liver at 10 to 30 mg/kg, ip co-administered daily with CCl4 for 4 weeks by sirius red staining based analysis; format: functional, organism-based; conditions: dose 10-30 mg/kg
[34] = tested on: Mus musculus; test: Antifibrotic activity in CCl4-induced male C57BL/6J mouse model of liver fibrosis assessed as reduction in fibrotic deposition in liver at 10 to 30 mg/kg, ip co-administered daily with CCl4 for 4 weeks by masson's trichrome staining based analysis; format: functional, organism-based; conditions: dose 10-30 mg/kg
[35] = tested on: Mus musculus; test: Antifibrotic activity in CCl4-induced male C57BL/6J mouse model of liver fibrosis assessed as downregulation of Timp1 gene expression at 10 to 30 mg/kg, ip co-administered daily with CCl4 for 4 weeks by RT-PCR analysis; format: functional, organism-based; conditions: dose 10-30 mg/kg
[36] = Metabolic stability in rat liver microsomes assessed as parent compound remaining measured after 30 mins in presence of NADPH by LC-MS/MS analysis; format: ADME, Microsome; conditions: read-out: Stability
[37] = biological target: hERG (KCNH2) (Homo sapiens, UniProt Q12809); test: Inhibition of human ERG at 10 uM incubated for 2 hrs by fluorescence polarization assay relative to control; format: toxicity
[38] = tested on: Mus musculus; test: Antifibrotic activity in CCl4-induced male C57BL/6J mouse model of liver fibrosis assessed as reduction in plasma total bilirubin level at 10 to 30 mg/kg, ip co-administered daily with CCl4 for 4 weeks by enzymatic colorimetric analysis; format: functional, organism-based; conditions: dose 10-30 mg/kg

T1 sequence (P41595 whole entry): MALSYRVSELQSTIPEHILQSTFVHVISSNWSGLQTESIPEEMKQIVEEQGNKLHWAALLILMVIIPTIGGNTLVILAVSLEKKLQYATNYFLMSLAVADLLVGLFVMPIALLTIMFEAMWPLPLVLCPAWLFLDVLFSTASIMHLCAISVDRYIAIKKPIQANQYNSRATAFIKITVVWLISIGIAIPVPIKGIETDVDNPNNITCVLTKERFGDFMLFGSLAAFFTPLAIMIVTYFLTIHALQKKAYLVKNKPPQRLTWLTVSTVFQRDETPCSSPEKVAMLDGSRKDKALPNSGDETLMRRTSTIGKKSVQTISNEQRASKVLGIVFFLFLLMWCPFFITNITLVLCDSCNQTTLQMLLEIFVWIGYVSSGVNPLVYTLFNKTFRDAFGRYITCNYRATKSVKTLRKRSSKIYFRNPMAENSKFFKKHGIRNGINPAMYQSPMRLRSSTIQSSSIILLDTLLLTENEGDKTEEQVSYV
Sequence of hERG (KCNH2) (Q12809 whole entry): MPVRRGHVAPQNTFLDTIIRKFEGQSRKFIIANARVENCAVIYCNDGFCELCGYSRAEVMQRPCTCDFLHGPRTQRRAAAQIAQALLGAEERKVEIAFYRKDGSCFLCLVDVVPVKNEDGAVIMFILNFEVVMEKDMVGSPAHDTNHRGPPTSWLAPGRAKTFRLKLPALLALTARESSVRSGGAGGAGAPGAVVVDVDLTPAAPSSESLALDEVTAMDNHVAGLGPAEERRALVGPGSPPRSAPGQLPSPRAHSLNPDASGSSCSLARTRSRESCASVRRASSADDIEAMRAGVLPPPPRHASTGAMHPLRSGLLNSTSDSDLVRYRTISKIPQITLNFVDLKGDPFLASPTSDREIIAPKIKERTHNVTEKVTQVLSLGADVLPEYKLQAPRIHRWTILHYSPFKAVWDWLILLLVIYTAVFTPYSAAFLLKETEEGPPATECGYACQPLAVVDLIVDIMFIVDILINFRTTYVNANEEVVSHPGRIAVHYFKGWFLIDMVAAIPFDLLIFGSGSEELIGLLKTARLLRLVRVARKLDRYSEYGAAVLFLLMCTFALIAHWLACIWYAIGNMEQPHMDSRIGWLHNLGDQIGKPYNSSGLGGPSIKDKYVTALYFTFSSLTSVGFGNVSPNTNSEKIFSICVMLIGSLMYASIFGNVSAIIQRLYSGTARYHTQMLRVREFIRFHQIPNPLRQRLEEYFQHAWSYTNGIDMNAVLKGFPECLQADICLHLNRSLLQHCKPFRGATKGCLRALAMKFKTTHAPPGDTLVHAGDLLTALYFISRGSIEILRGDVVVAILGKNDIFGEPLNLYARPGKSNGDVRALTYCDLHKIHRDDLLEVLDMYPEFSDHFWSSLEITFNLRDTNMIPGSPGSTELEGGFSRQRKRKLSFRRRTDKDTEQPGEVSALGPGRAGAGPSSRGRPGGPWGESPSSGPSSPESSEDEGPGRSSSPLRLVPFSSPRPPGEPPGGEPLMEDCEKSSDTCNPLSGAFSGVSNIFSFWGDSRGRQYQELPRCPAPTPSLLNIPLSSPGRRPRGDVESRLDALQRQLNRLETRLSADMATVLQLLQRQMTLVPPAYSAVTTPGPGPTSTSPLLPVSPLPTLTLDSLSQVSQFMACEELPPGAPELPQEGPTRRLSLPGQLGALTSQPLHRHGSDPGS
Sequence of CYP2C19 (P33261 whole entry): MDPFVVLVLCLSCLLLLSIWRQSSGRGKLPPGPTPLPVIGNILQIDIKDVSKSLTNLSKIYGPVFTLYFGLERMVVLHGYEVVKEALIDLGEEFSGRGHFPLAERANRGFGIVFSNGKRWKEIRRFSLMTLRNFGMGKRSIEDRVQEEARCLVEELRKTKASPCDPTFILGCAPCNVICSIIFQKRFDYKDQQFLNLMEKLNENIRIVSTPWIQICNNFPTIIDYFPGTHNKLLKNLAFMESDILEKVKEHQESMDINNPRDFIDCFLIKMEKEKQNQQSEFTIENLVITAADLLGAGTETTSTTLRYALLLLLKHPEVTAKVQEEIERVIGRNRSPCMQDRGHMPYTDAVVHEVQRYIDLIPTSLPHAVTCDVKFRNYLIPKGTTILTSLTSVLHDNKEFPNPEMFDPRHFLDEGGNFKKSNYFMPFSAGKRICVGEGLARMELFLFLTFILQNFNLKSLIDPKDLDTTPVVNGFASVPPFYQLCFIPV
Sequence of CYP2D6 (P10635 whole entry): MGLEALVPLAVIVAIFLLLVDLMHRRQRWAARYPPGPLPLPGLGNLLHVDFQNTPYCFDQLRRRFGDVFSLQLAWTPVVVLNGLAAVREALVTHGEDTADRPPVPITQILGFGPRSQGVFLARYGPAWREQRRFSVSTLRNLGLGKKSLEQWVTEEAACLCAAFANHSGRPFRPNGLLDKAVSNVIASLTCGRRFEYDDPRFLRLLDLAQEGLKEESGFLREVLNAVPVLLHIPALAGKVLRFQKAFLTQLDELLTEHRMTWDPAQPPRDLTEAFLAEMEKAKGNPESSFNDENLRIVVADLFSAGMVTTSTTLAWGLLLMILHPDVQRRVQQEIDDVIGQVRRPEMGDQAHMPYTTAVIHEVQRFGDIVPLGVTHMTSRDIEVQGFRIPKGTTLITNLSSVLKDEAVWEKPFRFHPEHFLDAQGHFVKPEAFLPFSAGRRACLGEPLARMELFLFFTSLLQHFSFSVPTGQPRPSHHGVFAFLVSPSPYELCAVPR
Sequence of CYP2C9 (P11712 whole entry): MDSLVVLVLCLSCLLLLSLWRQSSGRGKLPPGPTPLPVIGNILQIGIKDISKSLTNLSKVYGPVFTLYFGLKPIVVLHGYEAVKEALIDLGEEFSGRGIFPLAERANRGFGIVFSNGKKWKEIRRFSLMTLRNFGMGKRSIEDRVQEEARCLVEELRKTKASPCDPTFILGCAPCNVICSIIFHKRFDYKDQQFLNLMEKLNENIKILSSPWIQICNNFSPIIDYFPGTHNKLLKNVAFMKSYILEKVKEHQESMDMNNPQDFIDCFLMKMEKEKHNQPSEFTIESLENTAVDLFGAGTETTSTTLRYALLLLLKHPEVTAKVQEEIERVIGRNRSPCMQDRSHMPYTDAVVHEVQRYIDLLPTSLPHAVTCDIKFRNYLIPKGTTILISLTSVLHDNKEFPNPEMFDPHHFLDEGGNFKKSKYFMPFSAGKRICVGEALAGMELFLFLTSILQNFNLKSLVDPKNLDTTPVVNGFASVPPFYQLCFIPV
Sequence of CYP3A4 (P08684 whole entry): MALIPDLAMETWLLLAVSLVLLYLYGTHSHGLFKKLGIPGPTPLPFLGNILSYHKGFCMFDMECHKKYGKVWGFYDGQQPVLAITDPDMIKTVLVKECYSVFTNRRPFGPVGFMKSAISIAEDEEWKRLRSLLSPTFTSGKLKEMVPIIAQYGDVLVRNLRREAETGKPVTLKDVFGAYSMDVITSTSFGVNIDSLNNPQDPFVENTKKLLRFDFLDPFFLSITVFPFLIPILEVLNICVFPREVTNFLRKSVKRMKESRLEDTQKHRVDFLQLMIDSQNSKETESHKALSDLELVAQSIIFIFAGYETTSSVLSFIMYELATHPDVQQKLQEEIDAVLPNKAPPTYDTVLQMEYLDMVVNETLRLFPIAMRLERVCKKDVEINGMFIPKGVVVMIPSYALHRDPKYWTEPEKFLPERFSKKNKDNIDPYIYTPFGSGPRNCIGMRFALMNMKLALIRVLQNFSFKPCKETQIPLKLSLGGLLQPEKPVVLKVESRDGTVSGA
Sequence of 5-hydroxytryptamine receptor 2A (Homo sapiens) (P28223 whole entry): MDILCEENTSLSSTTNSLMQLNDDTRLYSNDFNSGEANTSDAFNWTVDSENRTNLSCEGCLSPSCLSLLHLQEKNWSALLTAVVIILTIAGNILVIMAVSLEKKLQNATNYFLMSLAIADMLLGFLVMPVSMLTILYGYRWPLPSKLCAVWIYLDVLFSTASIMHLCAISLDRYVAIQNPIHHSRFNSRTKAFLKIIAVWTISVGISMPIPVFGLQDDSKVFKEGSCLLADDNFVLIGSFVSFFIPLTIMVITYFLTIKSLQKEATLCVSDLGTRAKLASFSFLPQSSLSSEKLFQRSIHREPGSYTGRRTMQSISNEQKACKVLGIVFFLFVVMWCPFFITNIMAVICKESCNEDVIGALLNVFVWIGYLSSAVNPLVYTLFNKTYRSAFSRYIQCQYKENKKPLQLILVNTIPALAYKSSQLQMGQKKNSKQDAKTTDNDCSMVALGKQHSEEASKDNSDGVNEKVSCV

IC50 [1]: < 0.001 µM
SMILES: C[C@@H]1CN(C(=N)NCc2ccccc2)N=C1c1cccc(Cl)c1O

inhibition [2]: 20.1%
SMILES: COc1ccc(S(=O)(=O)N[C@H]2CCOC2)cc1C(=O)Nc1ccccc1NC(=O)OC(C)(C)C

inhibition ([2]; filed as antagonist): 96.3%
SMILES: COc1ccc(S(=O)(=O)NC2CCNCC2)cc1C(=O)Nc1ccccc1Cl

inhibition [4]: -9.88%
remaining at 0.5 h [5]: 97.6%
IC50 [7]: 0.00109 µM
inhibition at 20 min, 1 µM [8]: 33.8%
concentration at 0.5 h [11]: < 31.3 ng/g
AUC(0-t) at 24 h [14]: 810 ng·h/mL
clearance [17]: 34.5 mL/min/kg
inhibition at 20 min, 1 µM [18]: < 1%
remaining at 0.5 h [20]: 91.6%
Vd [21]: 1.93 L/kg
inhibition at 20 min, 1 µM [24]: < 1%
concentration at 0.5 h [26]: 440 ng/mL
inhibition at 20 min, 1 µM [29]: < 1%
inhibition ([2]; filed as antagonist): 102%
half-life [31]: 1.02 h
inhibition at 20 min, 1 µM [32]: 17.6%
remaining at 0.5 h [36]: 94.7%
SMILES: COc1ccc(S(=O)(=O)N[C@H]2CCN(C(=O)CC[C@H](N)C(=O)O)C2)cc1C(=O)Nc1ccccc1Cl.Cl
IC50 at 24 h [3]: > 100 µM
Activity [6]: Active
Activity [9]: Active
IC50 at 24 h [10]: > 100 µM
Activity [12]: Active
Activity [13]: Active
Activity [15]: Non-toxic
Activity [16]: Active
Activity [19]: Active
Activity [22]: Active
Activity [23]: Active
IC50 at 24 h [25]: > 100 µM
Activity [27]: Active
IC50 at 24 h [28]: > 100 µM
IC50 at 24 h [30]: > 100 µM
Activity [33]: Active
Activity [34]: Active
Activity [35]: Active
inhibition at 2 h, 10 µM [37]: 18.6%
Activity [38]: Active
